Holding throughout (format): functional
Assay [1] concerns Pseudomonas aeruginosa. Nature of the assay: Antimicrobial activity against Pseudomonas aeruginosa NICM 2036 assessed as growth inhibition by two-fold serial dilution method.
For assay [2], the system named is Escherichia coli. The assay is described as follows: Antimicrobial activity against Escherichia coli NICM 2138 assessed as growth inhibition by two-fold serial dilution method.
The test system of assay [3] is Staphylococcus epidermidis. Nature of the assay: Antimicrobial activity against Staphylococcus epidermidis NICM 2493 assessed as growth inhibition by two fold serial dilution method.
For assay [4], the system named is Staphylococcus aureus. The assay is described as follows: Antimicrobial activity against Staphylococcus aureus NICM 2079 assessed as growth inhibition by two fold serial dilution method.
In assay [5] the test system is Bacillus subtilis. Nature of the assay: Antimicrobial activity against Bacillus subtilis NICM 2063 assessed as growth inhibition by two fold serial dilution method.
The test system of assay [6] is Saccharomyces cerevisiae. The assay is described as follows: Antimicrobial activity against Saccharomyces cerevisiae NICM 3312 assessed as growth inhibition by two fold serial dilution method.
Assay [7] concerns Candida albicans. The assay is described as follows: Antimicrobial activity against Candida albicans NICM 3100 assessed as growth inhibition by two-fold serial dilution method.
Assay [8] has as its system Aspergillus flavus. Nature of the assay: Antimicrobial activity against Aspergillus flavus NICM 524 assessed as growth inhibition by two fold serial dilution method.
The subject of assay [9] is Aspergillus niger. The assay is described as follows: Antimicrobial activity against Aspergillus niger NICM 572 assessed as growth inhibition by two fold serial dilution method.
In assay [10] the test system is Rhizopus arrhizus. Nature of the assay: Antimicrobial activity against Rhizopus oryzae NICM 997 assessed as growth inhibition by two-fold serial dilution method.

Here are results for 14 compounds from ChEMBL document CHEMBL3045548, “Synthesis of some novel 1,2,4-triazole and 1,3,4-oxadiazole derivatives of biological interest” (2013).

≈ marks a conversion by molar mass, not a printed value.

One may read the MIC as the lowest concentration that inhibits growth of the organism. On to `CN[C@@H]1[C@H](O[C@H]2[C@H](O[C@H]3[C@H](O)[C@@H](O)[C@H](N=C(N)N)[C@@H](O)[C@@H]3N=C(N)N)O[C@@H](C)[C@]2(O)C=O)O[C@@H](CO)[C@H](O)[C@H]1O` [STREPTOMYCIN], for which the minimal inhibitory concentration (MIC) in [1] came out at 3.12 µg/mL (≈ 5.37 µM); in assay [2], 3.12 µg/mL (≈ 5.37 µM); in assay [3], 1.56 µg/mL (≈ 2.69 µM); in assay [4], 1.56 µg/mL (≈ 2.68 µM); in assay [5], 6.25 µg/mL (≈ 10.7 µM).
In the case of `Cc1nn(-c2ccc(-c3nnc(S)o3)cc2)c(=O)n1/N=C/c1cscn1`, the MIC was 150 µg/mL (≈ 389 µM) in assay [1]; 37.5 µg/mL (≈ 97.3 µM) in [2]; 18.8 µg/mL (≈ 48.6 µM) in [3]; 75 µg/mL (≈ 195 µM) in [4]; 37.5 µg/mL (≈ 97.3 µM) in assay [5]; 150 µg/mL (≈ 389 µM) in assay [6]. For the same compound, the MIC was found to be 150 µg/mL (≈ 389 µM) in assay [7], 150 µg/mL (≈ 389 µM) in assay [8], 150 µg/mL (≈ 389 µM) in assay [9] and 37.5 µg/mL (≈ 97.3 µM) in [10].
Consider `Cc1nn(-c2ccc(-c3nnc(S)o3)cc2)c(=O)n1/N=C/c1ccccc1Br`, for which the MIC in assay [1] was found to be 150 µg/mL (≈ 328 µM); in [2], 150 µg/mL (≈ 328 µM); in [3] it was 75 µg/mL (≈ 164 µM); in assay [4], 75 µg/mL (≈ 164 µM); in [5], 75 µg/mL (≈ 164 µM); in [6] it was 150 µg/mL (≈ 328 µM). For the same compound, the MIC in assay [7] was 150 µg/mL (≈ 328 µM); in assay [8] it was 75 µg/mL (≈ 164 µM); in assay [9], 150 µg/mL (≈ 328 µM); in assay [10] it was 37.5 µg/mL (≈ 82 µM).
Take `Cc1nn(-c2ccc(-c3nnc(S)o3)cc2)c(=O)n1/N=C/c1ccc(F)cc1`: the MIC in assay [1] turned out to be 75 µg/mL (≈ 189 µM); in assay [2], 37.5 µg/mL (≈ 94.6 µM); in [3], 150 µg/mL (≈ 378 µM); in assay [4], 150 µg/mL (≈ 378 µM); in [5] it was 75 µg/mL (≈ 189 µM); in [6], 150 µg/mL (≈ 378 µM). Also, the MIC in assay [7] came to 150 µg/mL (≈ 378 µM); in assay [8], 75 µg/mL (≈ 189 µM); in assay [9], 75 µg/mL (≈ 189 µM); in [10] it was 75 µg/mL (≈ 189 µM).
With `Cc1nn(-c2ccc(-c3nnc(S)o3)cc2)c(=O)n1/N=C/c1ccccc1F`, the MIC in assay [1] was 75 µg/mL (≈ 189 µM); in assay [2] it was 75 µg/mL (≈ 189 µM); in assay [3], 150 µg/mL (≈ 378 µM); in assay [4], 37.5 µg/mL (≈ 94.6 µM); in [5], 75 µg/mL (≈ 189 µM); in [6], 75 µg/mL (≈ 189 µM). Also, the MIC in assay [7] amounted to 150 µg/mL (≈ 378 µM); in [8], 37.5 µg/mL (≈ 94.6 µM); in assay [9], 75 µg/mL (≈ 189 µM); in assay [10], 9.37 µg/mL (≈ 23.6 µM).
In the case of `Cc1nn(-c2ccc(-c3nnc(S)n3N)cc2)c(=O)n1N`, the minimal inhibitory concentration (MIC) amounted to 18.8 µg/mL (≈ 61.6 µM) in assay [1]; 37.5 µg/mL (≈ 123 µM) in assay [2]; 75 µg/mL (≈ 246 µM) in [3]; 9.37 µg/mL (≈ 30.8 µM) in assay [4]; 18.8 µg/mL (≈ 61.6 µM) in [5]; 150 µg/mL (≈ 493 µM) in assay [6]. Also, the MIC in [7] is 150 µg/mL (≈ 493 µM); in assay [8], 75 µg/mL (≈ 246 µM); in assay [9], 37.5 µg/mL (≈ 123 µM); in assay [10] it was 18.8 µg/mL (≈ 61.6 µM).
Take `C[C@@H]1[C@H](O)[C@@H](C)/C=C/C=C/C=C/C=C/C=C/C=C/C=C/[C@H](O[C@@H]2O[C@H](C)[C@@H](O)[C@H](N)[C@@H]2O)C[C@@H]2O[C@](O)(C[C@@H](O)C[C@@H](O)[C@H](O)CC[C@@H](O)C[C@@H](O)CC(=O)O[C@H]1C)C[C@H](O)[C@H]2C(=O)O` [AMPHOTERICIN B]: the MIC worked out at 6.25 µg/mL (≈ 6.76 µM) in assay [6]; 6.25 µg/mL (≈ 6.76 µM) in assay [7]; 6.25 µg/mL (≈ 6.76 µM) in [8]; 1.56 µg/mL (≈ 1.69 µM) in assay [9]; 1.56 µg/mL (≈ 1.69 µM) in assay [10].
On to `Cc1nn(-c2ccc(-c3nnc(S)o3)cc2)c(=O)n1/N=C/c1cc(F)ccc1F`, for which the MIC in assay [1] is 75 µg/mL (≈ 181 µM); in [2], 150 µg/mL (≈ 362 µM); in assay [3] it was 18.8 µg/mL (≈ 45.2 µM); in assay [4] it was 75 µg/mL (≈ 181 µM); in [5] it was 37.5 µg/mL (≈ 90.5 µM); in assay [6], 150 µg/mL (≈ 362 µM). Moreover, the MIC in assay [7] turned out to be 18.8 µg/mL (≈ 45.2 µM); in assay [8], 9.37 µg/mL (≈ 22.6 µM); in [9], 37.5 µg/mL (≈ 90.5 µM); in [10], 18.8 µg/mL (≈ 45.2 µM).
As to `Cc1nn(-c2ccc(-c3nnc(S)o3)cc2)c(=O)n1/N=C/c1cccc(F)c1`, the MIC in assay [1] is 75 µg/mL (≈ 189 µM); in assay [2], 9.37 µg/mL (≈ 23.6 µM); in assay [3], 37.5 µg/mL (≈ 94.6 µM); in [4] it was 9.37 µg/mL (≈ 23.6 µM); in assay [5], 18.8 µg/mL (≈ 47.3 µM); in assay [6], 75 µg/mL (≈ 189 µM). Besides, the MIC in [7], in [8], in [9] and in [10] was 150 µg/mL (≈ 378 µM) in each case.
For `Cc1nn(-c2ccc(-c3nnc(S)o3)cc2)c(=O)n1N`, the MIC is 37.5 µg/mL (≈ 129 µM) in assay [1]; 75 µg/mL (≈ 258 µM) in assay [2]; 150 µg/mL (≈ 517 µM) in assay [3]; 75 µg/mL (≈ 258 µM) in [4]; 37.5 µg/mL (≈ 129 µM) in assay [5]; 150 µg/mL (≈ 517 µM) in assay [6]. In addition, the MIC was 37.5 µg/mL (≈ 129 µM) in assay [7], 150 µg/mL (≈ 517 µM) in [8], 150 µg/mL (≈ 517 µM) in assay [9] and 75 µg/mL (≈ 258 µM) in [10].
With `CSc1nnc(-c2ccc(-n3nc(C)n(N)c3=O)cc2)o1`, the MIC in [1] turned out to be 75 µg/mL (≈ 246 µM); in assay [2] it was 75 µg/mL (≈ 246 µM); in [3] it was 75 µg/mL (≈ 246 µM); in [4], 37.5 µg/mL (≈ 123 µM); in assay [5], 150 µg/mL (≈ 493 µM); in assay [6] it was 150 µg/mL (≈ 493 µM). In addition, the MIC was 150 µg/mL (≈ 493 µM) in assay [7], 150 µg/mL (≈ 493 µM) in [8], 150 µg/mL (≈ 493 µM) in assay [9] and 37.5 µg/mL (≈ 123 µM) in assay [10].
With `CC1(C)S[C@@H]2[C@H](NC(=O)Cc3ccccc3)C(=O)N2[C@H]1C(=O)O` [PENICILLIN G], the MIC was 9.37 µg/mL (≈ 28 µM) in [1]; 6.25 µg/mL (≈ 18.7 µM) in [2]; 3.12 µg/mL (≈ 9.35 µM) in assay [3]; 6.25 µg/mL (≈ 18.7 µM) in assay [4]; 1.53 µg/mL (≈ 4.56 µM) in [5].
For the compound `Cc1nn(-c2ccc(-c3nnc(S)o3)cc2)c(=O)n1/N=C/c1ccco1`, the MIC in assay [1] came out at 37.5 µg/mL (≈ 102 µM); in assay [2], 150 µg/mL (≈ 407 µM); in [3], 75 µg/mL (≈ 204 µM); in [4] it was 37.5 µg/mL (≈ 102 µM); in [5], 150 µg/mL (≈ 407 µM); in assay [6], 150 µg/mL (≈ 407 µM). The MIC in assay [7], in assay [8], in [9] and in [10] was 150 µg/mL (≈ 407 µM) each time.
In the case of `CCOC(=O)CSc1nnc(-c2ccc(-n3nc(C)n(N)c3=O)cc2)o1`, the MIC amounted to 75 µg/mL (≈ 199 µM) in [1]; 37.5 µg/mL (≈ 99.6 µM) in [2]; 75 µg/mL (≈ 199 µM) in assay [3]; 18.8 µg/mL (≈ 49.8 µM) in [4]; 37.5 µg/mL (≈ 99.6 µM) in [5]; 150 µg/mL (≈ 399 µM) in [6]. The MIC in [7], in [8], in assay [9] and in assay [10] was 150 µg/mL (≈ 399 µM) in each case.
